The results in this text go back to US20080182798A1, “Novel effectors of dipeptidyl peptidase IV” (priority 1998, published 2008).

Counter-ions that a name gives are not always drawn.

One data set addresses dipeptidyl peptidase IV (Homo sapiens, UniProt P27487). As to the kind of experiment: Action of effectors on the DP IV-catalysed hydrolysis of H-Gly-Pro-pNA. Format: biochemical. The note with it: 0.4 mM H-Gly-Pro-pNA, 30° C., pH 7.6, ionic strength 0.125; for remaining activity at 10 µM / % Residual activity of DP IV in the presence of 10 μM effector: 10 μM effector; for remaining activity at 10 µM: read-out: % Residual activity of DP IV in the presence of 10 μM effector; for Ki: read-out: Effector affinity to DP IV: Ki.

For data set [1], the target named is T1, peptide transporter Pep T1 (Homo sapiens, UniProt P46059).
T1 sequence (P46059 1-708): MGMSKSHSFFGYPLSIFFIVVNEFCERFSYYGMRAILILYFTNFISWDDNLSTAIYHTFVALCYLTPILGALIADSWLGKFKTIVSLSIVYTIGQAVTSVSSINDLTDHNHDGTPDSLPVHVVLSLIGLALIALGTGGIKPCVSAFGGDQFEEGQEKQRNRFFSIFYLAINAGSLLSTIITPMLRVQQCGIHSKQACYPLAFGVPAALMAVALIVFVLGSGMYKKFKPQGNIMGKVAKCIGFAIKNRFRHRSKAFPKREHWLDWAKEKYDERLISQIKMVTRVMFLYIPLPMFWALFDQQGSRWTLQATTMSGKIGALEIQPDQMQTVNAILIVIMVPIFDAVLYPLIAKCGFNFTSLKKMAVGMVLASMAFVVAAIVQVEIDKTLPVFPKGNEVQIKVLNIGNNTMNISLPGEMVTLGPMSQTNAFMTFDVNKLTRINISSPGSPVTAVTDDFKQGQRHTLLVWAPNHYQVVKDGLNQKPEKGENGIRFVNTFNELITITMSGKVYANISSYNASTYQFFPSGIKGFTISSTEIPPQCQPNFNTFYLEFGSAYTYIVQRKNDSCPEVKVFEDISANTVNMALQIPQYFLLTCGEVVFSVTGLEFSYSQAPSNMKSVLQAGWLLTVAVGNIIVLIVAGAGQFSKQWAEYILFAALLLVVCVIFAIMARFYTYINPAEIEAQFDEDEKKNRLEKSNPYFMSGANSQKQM
Briefly: Transport by the peptide transporter Pep T1. In kind it is in vitro ADME. The settings on record: in comparison with L-threo-isoleucyl thiazolidide.

Data set [2] has as its system circulating blood glucose. As to the kind of experiment: Circulating blood glucose after oral administration with synchronous glucose tolerance test. Format: in vivo, Wistar rat. The note with it: for Glucose concentration in % L-allo-Ile-thiazolidide-treated: oral 20 μM, within 60 min, % based on normoglycaemic values (control 100).
Data set [3] can be described thus: Testing the solubility of salts of Ile-Thia in distilled water. In kind it is physicochemical. The note with it: H2Odist. As to the method:
Testing the Solubility of Salts of Ile-Thia
Addition of 100 μl H2Odist.

Chain of dipeptidyl peptidase IV (P27487 whole entry, species assumed): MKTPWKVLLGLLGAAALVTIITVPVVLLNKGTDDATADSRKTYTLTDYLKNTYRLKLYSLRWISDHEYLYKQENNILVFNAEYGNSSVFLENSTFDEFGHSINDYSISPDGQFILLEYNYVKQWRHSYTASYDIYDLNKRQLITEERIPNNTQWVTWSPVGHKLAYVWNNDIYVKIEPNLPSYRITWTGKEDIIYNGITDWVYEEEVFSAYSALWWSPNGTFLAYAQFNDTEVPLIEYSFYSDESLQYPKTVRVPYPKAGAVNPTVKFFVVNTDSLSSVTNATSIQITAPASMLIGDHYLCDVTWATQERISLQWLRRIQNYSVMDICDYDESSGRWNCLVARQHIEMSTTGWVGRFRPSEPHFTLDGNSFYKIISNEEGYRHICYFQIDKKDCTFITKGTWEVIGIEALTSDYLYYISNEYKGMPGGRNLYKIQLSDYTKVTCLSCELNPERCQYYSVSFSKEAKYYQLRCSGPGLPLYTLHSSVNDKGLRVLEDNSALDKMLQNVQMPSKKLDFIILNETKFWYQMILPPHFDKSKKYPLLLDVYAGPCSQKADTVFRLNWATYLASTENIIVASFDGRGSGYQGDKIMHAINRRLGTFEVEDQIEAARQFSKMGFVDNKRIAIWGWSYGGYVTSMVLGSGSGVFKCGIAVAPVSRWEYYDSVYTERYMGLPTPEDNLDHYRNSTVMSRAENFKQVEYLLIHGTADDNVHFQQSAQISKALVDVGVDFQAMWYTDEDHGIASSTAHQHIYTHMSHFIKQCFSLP

For `NC(Cc1c[nH]cn1)C(=O)N1CCSC1` (centres unmarked) [H-His-thiazolidide], at dipeptidyl peptidase IV, the remaining activity at 10 µM stood at 35.2%; the Ki – broadly, the dissociation constant of the complex between target and ligand, obtained from inhibition or displacement – came out at 1.8 µM.
On the same counts, the results for `NC(CCC(=O)NO)C(=O)N1CCSC1` (centres unmarked) [H-Glu(NHOH)-thiazolidide] are 36.5% and 1.7 µM.
On the same counts, the results for `CN(C)C(=N)N=C(N)N` [metformin, reference compound] are 100% and over 1000 µM.
Taken in the same sequence, the figures for `C[C@H]1O[C@H](O[C@H]2[C@H](O)[C@@H](O)[C@@H](O[C@H]3[C@H](O)[C@@H](O)C(O)O[C@@H]3CO)O[C@@H]2CO)[C@H](O)[C@@H](O)[C@@H]1N[C@H]1C=C(CO)[C@@H](O)[C@H](O)[C@H]1O` (some centres unmarked) [acarbose, reference compound] were 100% and over 1000 µM.
As to `CC[C@@H](C)[C@H](N)C(=O)N1CCSC1` [H-L-allo-Ile-thiazolidide, L-allo-isoleucyl thiazolidide], the “Improvement in transport by the peptide transporter Pep T1” value in data set [1] is “approximately five-fold”. In addition, the “Glucose concentration in % L-allo-Ile-thiazolidide-treated” value in data set [2] (Wistar rat (diabetes 2b-model, obese)) came out at 73%; in data set [2] (Wistar rat, normal), 82%. The “Degree of action with respect to glucose modulation” value in data set [2] (in comparison with L-threo-isoleucyl thiazolidide) is recorded as “approximately the same degree of action”.
Take `NC(Cc1c[nH]cn1)C(=O)N1CCCC1` (centres unmarked) [H-His-pyrrolidide]: on dipeptidyl peptidase IV, the remaining activity at 10 µM came to 49.7% and the Ki turned out to be 3.5 µM.
On the same counts, the results for `NC(CCC(=O)O)C(=O)N1CCSC1` (centres unmarked) [H-Glu-thiazolidide] are 25% and 0.61 µM.
On the same counts, the results for `COc1ccc(Cl)cc1C(=O)NCCc1ccc(S(=O)(=O)NC(=O)NC2CCCCC2)cc1` [glibenclamide, reference compound] are 100% and over 1000 µM.
Turning to `NC(CC(=O)O)C(=O)N1CCCC1` (centres unmarked) [H-Asp-pyrrolidide], at dipeptidyl peptidase IV, the remaining activity at 10 µM is 81.6% and the Ki was determined as 14 µM.
On the same counts, the results for `NC(CC(=O)NO)C(=O)N1CCSC1` (centres unmarked) [H-Asp(NHOH)-thiazolidide] are 54.5% and 8.8 µM.
On the same counts, the results for `NC(=O)CC(N)C(=O)N1CCSC1` (centres unmarked) [H-Asn-thiazolidide] are 47.2% and 3.5 µM.
On to `CC[C@H](C)[C@H](N)C(=O)N1CCSC1` [L-threo-IT*F, L-threo-isoleucyl thiazolidide fumarate], for which the “Wettability and decomposition in water” value in data set [3] is “scarcely wettable and does not decompose”. In addition, in data set [3] (visual), the “Solubility: concentration at complete dissolution” value is reported as 2.63%.
For `NC(CC(=O)O)C(=O)N1CCSC1` (centres unmarked) [H-Asp-thiazolidide], on dipeptidyl peptidase IV, the remaining activity at 10 µM was 45.6% and the inhibition constant (Ki) is 2.9 µM.
Taken in the same sequence, the figures for `NC(CC(=O)NO)C(=O)N1CCCC1` (centres unmarked) [H-Asp(NHOH)-pyrrolidide] were 88.2% and 13 µM.
For the compound `NC(CCC(=O)NO)C(=O)N1CCCC1` (centres unmarked) [H-Glu(NHOH)-pyrrolidide], at dipeptidyl peptidase IV, the “% Residual activity of DP IV in the presence of 10 μM effector” value is 44.9% and the Ki is 2.8 µM.
Taken in the same sequence, the figures for `CC[C@H](C)[C@H](N)C(=O)N1CC1` [H-Ile-azididide] were 43.8% and 3.1 µM.
`NC(=O)CC(N)C(=O)N1CCCC1` (centres unmarked) [H-Asn-pyrrolidide]: on dipeptidyl peptidase IV, the remaining activity at 10 µM amounted to 83.1% and the Ki was 12 µM.
Taken in the same sequence, the figures for `CC(C)C(N)C(=O)N1CCSC1` (centres unmarked) [H-Val-thiazolidide] were 13.6% and 0.27 µM.
